From US20260103471A1, “CYCLIC UREA THIAZOLYL COMPOUNDS FOR TREATMENT OF HSV” (Assembly Biosciences, Inc., priority 2022, published 2026) come the findings set out here.

One may read the EC50 as the concentration at which the effect is half-maximal.

The assay deals with HSV-1. Put plainly: HSV-1 Antiviral Assay (Vero cells, cell viability). Format: cell-based. Particulars: Human alphaherpesvirus 1, 96 h; Vero cells, 80 TCID50 HSV-1, 4 days, cell viability; read-out: HSV-1 EC50. Here is the method:
Vero cells were cultured in Dulbecco's Modified Eagle Medium (DMVEM) supplemented with […] and 100 units/mL penicillin and streptomycin. The cells were passaged 2-3 times per week to maintain sub-confluent densities.
Vero cells were seeded into 96-well plates at a density of 2.5×10^3 cells per well and allowed to attach overnight. Following attachment, the media was replaced with 50 μL of infection medium (DMVEM supplemented with 2% fetal bovine serum and 100 units/mL penicillin and streptomycin). A Tecan D300e digital dispenser was then used to add compounds to the culture using an 8-point 3-fold serial dilution format. The DMSO concentration was normalized to 0.5% for all treatments. Following compound addition, 50 μL of infection medium containing 80 TCID50 HSV-1 was added to the cells and incubated at 37° C. for 4 days. After the incubation, the plates were equilibrated to room temperature, the media was removed, and […] a 1:1 dilution of Cell titer glow and phosphate buffered saline was added to the cells. Following a 5-minute incubation, cell viability was quantified by measuring luminance using a Tecan Infinite M1000 Pro plate reader.
As to `Cc1nc(N2CCCN(c3ccc(-c4cccc5cccnc45)cc3)C2=O)sc1S(N)(=O)=O` [Compound 82], the EC50 was in the range of 100 to 1000 nM.
For `Cc1nc(N2CCCN(c3ccc(-c4ccccn4)c(F)c3)C2=O)sc1S(=O)(=O)NC1CC1` [Compound 129], the EC50 is 100 to 1000 nM.
Regarding `Cc1nc(N2CC3(CC3)CN(c3ccc(-c4ccccc4F)cc3)C2=O)sc1S(C)(=N)=O` (centres unmarked) [Compound 158], the EC50 fell in the range of 100 to 1000 nM.
In the case of `Cc1nc(N2CCCN(c3ccc(-c4nc5ccccc5o4)cc3)C2=O)sc1S(N)(=O)=O` [Compound 87] it was 1000 to 5000 nM.
Take `Cc1nc(N2CCCN(c3ccc(-c4cc(F)ccc4F)cc3)C2=O)sc1S(C)(=N)=O` (centres unmarked) [Compound 139, 1-(2′,5′-Difluoro-[1,1′-biphenyl]-4-yl)-3-(4-methyl-5-(S-methylsulfonimidoyl)thiazol-2-yl) tetrahydropyrimidin-2(1H)-one]: the EC50 fell in the range of 100 to 1000 nM.
As to `Cc1nc(N2CCCN(c3ccc(-c4n[nH]c5ccccc45)cc3)C2=O)sc1S(N)(=O)=O` [Compound 91], the 50% effective concentration (EC50) lay in the range of 100 to 1000 nM.
Turning to `Cc1nc(N2CC3(CC3)CN(c3ccc(-c4ccccc4F)cc3)C2=O)sc1[S@](C)(=N)=O` (single isomer, unassigned) [Compound 159], the EC50 fell in the range of 100 to 1000 nM.
In the case of `Cc1nc(N2CCCN(c3ccc(-c4cccc5c4CC(=O)N5)cc3)C2=O)sc1S(N)(=O)=O` [Compound 76], the EC50 was in the range of 1000 to 5000 nM.
With `Cc1nc(N2CCCN(c3ccc(-c4cccc5scnc45)cc3)C2=O)sc1S(N)(=O)=O` [Compound 71, 2-(3-(4-(Benzo[d]thiazol-4-yl)phenyl)-2-oxotetrahydropyrimidin-1(2H)-yl)-4-methylthiazole-5-sulfonamide] the figure was less than 100 nM; with `CC[S@](=N)(=O)c1sc(N2CCCN(c3ccc(-c4cc(F)ccc4F)cc3)C2=O)nc1C` (single isomer, unassigned) [Compound 150], less than 100 nM.
For the molecule `Cc1nc(N2CCCN(c3ccc(-c4cccc5ccncc45)cc3)C2=O)sc1S(N)(=O)=O` [Compound 83], the EC50 is less than 100 nM.
In the case of `Cc1nc(N2CC(C)(C)CN(c3ccc(-c4cc(F)ccc4F)cc3)C2=O)sc1S(N)(=O)=O` [Compound 106] it was less than 100 nM.
In the case of `Cc1nc(N2CCCN(c3ccc(-c4cccc(N)n4)cc3)C2=O)sc1S(N)(=O)=O` [Compound 33] it was 100 to 1000 nM; in that of `Cc1nc(N2CCCN([C@@H](C)c3cccc(-c4ccccc4F)c3)C2=O)sc1S(N)(=O)=O` (single isomer, unassigned) [Compound 179], 1000 to 5000 nM.
Regarding `Cc1nc(N2CCCN(c3ccc(-c4cccc5cnn(C)c45)cc3)C2=O)sc1S(N)(=O)=O` [Compound 63], the EC50 is less than 100 nM.
In the case of `Cc1cnc(-c2ccc(N3CCCN(c4nc(C)c(S(N)(=O)=O)s4)C3=O)cc2)s1` [Compound 44] it was 1000 to 5000 nM.
In the case of `Cc1nc(N2CCCN(c3ccc(-c4cc(F)ccc4F)cc3)C2=O)sc1S(=O)(=O)Nc1ccccc1` [Compound 134], the EC50 lay within 100 to 1000 nM.
In the case of `Cc1nc(N2CCCN(c3ccc(-c4nc(C(F)(F)F)cs4)cc3)C2=O)sc1S(N)(=O)=O` [Compound 46] it was 100 to 1000 nM.
As for `Cc1nc(N2CCCN(c3ccc(-c4cccc(NC(=O)OC(C)(C)C)n4)cc3)C2=O)sc1S(N)(=O)=O` [Compound 34], the EC50 was 100 to 1000 nM.
With `CNS(=O)(=O)c1sc(N2CCCN(c3ccc(-c4cccc(NC(=O)OC(C)(C)C)n4)cc3)C2=O)nc1C` [Compound 125] the figure was 100 to 1000 nM.
For the molecule `Cc1nc(N2CCCN(Cc3cccc(-c4ccccc4)c3)C2=O)sc1S(=O)(=O)NC1CC1` [Compound 183], the half-maximal effective concentration (EC50) lay within 100 to 1000 nM.
In the case of `Cc1nc(N2CCCN(c3ccc(-c4cc(F)ccc4F)cc3)C2=O)sc1S(=O)(=O)C(C)C` [Compound 162, 1-(2′,5′-Difluoro-[1,1′-biphenyl]-4-yl)-3-(5-(isopropylsulfonyl)-4-methylthiazol-2-yl) tetrahydropyrimidin-2(1H)-one] it was 100 to 1000 nM; in that of `CC[S@@](=N)(=O)c1sc(N2CCCN(c3ccc(-c4cc(F)ccc4F)cc3)C2=O)nc1C` (single isomer, unassigned) [Compound 149], 100 to 1000 nM.
